Data from PubChem BioAssay AID2060619 (Molecular Pharmacology Branch, DTP, NCI, 2025).
Values joined by “and” are separate entries in the source; they are usually repeats but may differ in a detail not shown here. Equal entries are not always repeated.

Test system: 323965-272-R-J2-PDC complex spheroid viability
Assay: Anticancer human tumor 323965-272-R-J2-PDC patient-derived pancreatic carcinoma cell line growth inhibition [CLK]
Details: for viability, T/C: stronger effect = lower value
Method in brief: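 Multi-cell-type spheroids combined patient-derived tumor cells with HUVEC endothelial cells and human mesenchymal stem cells. Paired agents were dosed in half-log steps down from about clinical Cmax, or from 10 microM where Cmax was unknown.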

[1] = curve of first compound, second compound 0.0316 µM
[2] = curve of first compound, second compound 0.1 µM
[3] = curve of first compound, second compound 0.316 µM
[4] = curve of first compound, second compound 1 µM
[5] = curve of first compound, second compound 3.16 µM
[6] = curve of first compound, second compound 10 µM
[7] = second compound 0.0316 µM, first compound 0.0316 µM
[8] = second compound 0.0316 µM, first compound 0.1 µM
[9] = second compound 0.1 µM, first compound 0.0316 µM
[10] = second compound 0.1 µM, first compound 0.1 µM
[11] = second compound 0.316 µM, first compound 0.0316 µM
[12] = second compound 0.316 µM, first compound 0.1 µM
[13] = second compound 1 µM, first compound 0.0316 µM
[14] = second compound 1 µM, first compound 0.1 µM
[15] = second compound 3.16 µM, first compound 0.0316 µM
[16] = second compound 3.16 µM, first compound 0.1 µM
[17] = second compound 10 µM, first compound 0.0316 µM
[18] = second compound 10 µM, first compound 0.1 µM
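Note: spheroids exposed to agents for seven days before readout.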
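Throughout, for viability, T/C: percent of DMSO vehicle control wells so 100% = untreated growth.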

COc1ccc([C@@H](O)c2cc(-c3ncnc4cc(N5CCOCC5)ccc34)c(F)cc2Cl)nn1 + CN1CCN(c2cc(C(=O)Nc3cc4cc(-c5cnn(C)c5)ccc4cn3)ccn2)CC1
IC50 [1]: 7780 nM | IC50 [2]: 3340 nM | IC50 [3]: < 31.6 nM | IC50 [4]: < 31.6 nM | IC50 [5]: < 31.6 nM | IC50 [6]: < 31.6 nM | viability, T/C [7]: 94.2% | viability, T/C [8]: 100% | viability, T/C (second compound 0.0316 µM, first compound 0.316 µM): 84% | viability, T/C (second compound 0.0316 µM, first compound 1 µM): 89.7% | viability, T/C (second compound 0.0316 µM, first compound 3.16 µM): 68.8% | viability, T/C (second compound 0.0316 µM, first compound 10 µM): 44.5% | viability, T/C [9]: 70.5% | viability, T/C [10]: 80.3% | viability, T/C (second compound 0.1 µM, first compound 0.316 µM): 62.9% | viability, T/C (second compound 0.1 µM, first compound 1 µM): 61.8% | viability, T/C (second compound 0.1 µM, first compound 3.16 µM): 51% | viability, T/C (second compound 0.1 µM, first compound 10 µM): 37.8% | viability, T/C [11]: 21.9% | viability, T/C [12]: 23.9% | viability, T/C (second compound 0.316 µM, first compound 0.316 µM): 22.8% | viability, T/C (second compound 0.316 µM, first compound 1 µM): 21.1% | viability, T/C (second compound 0.316 µM, first compound 3.16 µM): 19.1% | viability, T/C (second compound 0.316 µM, first compound 10 µM): 21.1% | viability, T/C [13]: 4.14% | viability, T/C [14]: 3.13% | viability, T/C (second compound 1 µM, first compound 0.316 µM): 4.35% | viability, T/C (second compound 1 µM, first compound 1 µM): 2.76% | viability, T/C (second compound 1 µM, first compound 3.16 µM): 3.07% | viability, T/C (second compound 1 µM, first compound 10 µM): 4.48% | viability, T/C [15]: 4.01% | viability, T/C [16]: 4.31% | viability, T/C (second compound 3.16 µM, first compound 0.316 µM): 6.05% | viability, T/C (second compound 3.16 µM, first compound 1 µM): 4.02% | viability, T/C (second compound 3.16 µM, first compound 3.16 µM): 5.21% | viability, T/C (second compound 3.16 µM, first compound 10 µM): 4.73% | viability, T/C [17]: 4.33% | viability, T/C [18]: 5.55% | viability, T/C (second compound 10 µM, first compound 0.316 µM): 4.42% | viability, T/C (second compound 10 µM, first compound 1 µM): 5.56% | viability, T/C (second compound 10 µM, first compound 3.16 µM): 5.95% | viability, T/C (second compound 10 µM, first compound 10 µM): 6.95%

Nc1ccn(C2OC(CO)C(O)C2(F)F)c(=O)n1 (centres undefined)
viability, T/C (compound 0.0316 µM): 30.7% and 33.9% | viability, T/C (compound 0.1 µM): 35.3% and 38.5% | viability, T/C (compound 0.316 µM): 30% and 29.5% | viability, T/C (compound 1 µM): 37.3% and 32.3% | viability, T/C (compound 3.16 µM): 32.7% and 31.5% | viability, T/C (compound 10 µM): 28.6% and 33.3% | IC50 (curve of compound): < 31.6 nM

CCc1c2c(nc3ccc(O)cc13)-c1cc3c(c(=O)n1C2)COC(=O)[C@]3(O)CC
viability, T/C (compound 0.00316 µM): 90.2% and 92.5% | viability, T/C (compound 0.01 µM): 49.5% and 42.7% | viability, T/C (compound 0.0316 µM): 34.2% and 29.5% | viability, T/C (compound 0.1 µM): 35.9% and 30.6% | viability, T/C (compound 0.316 µM): 26.4% and 30.6% | viability, T/C (compound 1 µM): 26.2% and 20.2% | IC50 (curve of compound): 10.2 nM and 8.51 nM

CC(CO)NC(=O)c1cc(-c2ccc(Cl)cc2)nn(-c2cnn(C)c2)c1=O (centres undefined)
viability, T/C (compound 0.0316 µM): 93.7% and 115% | viability, T/C (compound 0.1 µM): 92.6% and 98.9% | viability, T/C (compound 0.316 µM): 94.8% and 101% | viability, T/C (compound 1 µM): 91.8% and 110% | viability, T/C (compound 3.16 µM): 106% and 116% | viability, T/C (compound 10 µM): 91.5% and 105% | IC50 (curve of compound): > 10000 nM

Cn1ncnc1[C@H]1c2n[nH]c(=O)c3cc(F)cc(c23)N[C@@H]1c1ccc(F)cc1 + CN1CCN(c2cc(C(=O)Nc3cc4cc(-c5cnn(C)c5)ccc4cn3)ccn2)CC1
IC50 [1]: > 100 nM | IC50 [2]: > 100 nM | IC50 [3]: < 0.316 nM | IC50 [4]: < 0.316 nM | IC50 [5]: < 0.316 nM | IC50 [6]: < 0.316 nM | viability, T/C (second compound 0.0316 µM, first compound 0.000316 µM): 96.1% | viability, T/C (second compound 0.0316 µM, first compound 0.001 µM): 96% | viability, T/C (second compound 0.0316 µM, first compound 0.00316 µM): 90% | viability, T/C (second compound 0.0316 µM, first compound 0.01 µM): 93.3% | viability, T/C [7]: 97% | viability, T/C [8]: 68.3% | viability, T/C (second compound 0.1 µM, first compound 0.000316 µM): 67.6% | viability, T/C (second compound 0.1 µM, first compound 0.001 µM): 65.7% | viability, T/C (second compound 0.1 µM, first compound 0.00316 µM): 61.6% | viability, T/C (second compound 0.1 µM, first compound 0.01 µM): 74% | viability, T/C [9]: 61.1% | viability, T/C [10]: 46.1% | viability, T/C (second compound 0.316 µM, first compound 0.000316 µM): 23.8% | viability, T/C (second compound 0.316 µM, first compound 0.001 µM): 26.9% | viability, T/C (second compound 0.316 µM, first compound 0.00316 µM): 23% | viability, T/C (second compound 0.316 µM, first compound 0.01 µM): 27.9% | viability, T/C [11]: 24.6% | viability, T/C [12]: 21.8% | viability, T/C (second compound 1 µM, first compound 0.000316 µM): 2.64% | viability, T/C (second compound 1 µM, first compound 0.001 µM): 3.21% | viability, T/C (second compound 1 µM, first compound 0.00316 µM): 3.5% | viability, T/C (second compound 1 µM, first compound 0.01 µM): 2.88% | viability, T/C [13]: 5.47% | viability, T/C [14]: 3.21% | viability, T/C (second compound 3.16 µM, first compound 0.000316 µM): 4.62% | viability, T/C (second compound 3.16 µM, first compound 0.001 µM): 3.78% | viability, T/C (second compound 3.16 µM, first compound 0.00316 µM): 5.87% | viability, T/C (second compound 3.16 µM, first compound 0.01 µM): 3.77% | viability, T/C [15]: 4.01% | viability, T/C [16]: 4.38% | viability, T/C (second compound 10 µM, first compound 0.000316 µM): 4.34% | viability, T/C (second compound 10 µM, first compound 0.001 µM): 4.75% | viability, T/C (second compound 10 µM, first compound 0.00316 µM): 6.41% | viability, T/C (second compound 10 µM, first compound 0.01 µM): 4.13% | viability, T/C [17]: 4.28% | viability, T/C [18]: 4.85%

C#Cc1c(F)ccc2cc(O)cc(-c3ncc4c(N5CC6CCC(C5)N6)nc(OCC56CCCN5CC(F)C6)nc4c3F)c12 (centres undefined)
viability, T/C (compound 0.0316 µM): 101% and 111% | viability, T/C (compound 0.1 µM): 91.2% and 95.5% | viability, T/C (compound 0.316 µM): 106% and 98.5% | viability, T/C (compound 1 µM): 81.5% and 86.9% | viability, T/C (compound 3.16 µM): 63.2% and 75.6% | viability, T/C (compound 10 µM): 48.4% and 55.3% | IC50 (curve of compound): 9340 nM and > 10000 nM

C=CC(=O)N1CCN(c2nc(=O)n(-c3c(C)ccnc3C(C)C)c3nc(-c4c(O)cccc4F)c(F)cc23)C(C)C1 (centres undefined)
viability, T/C (compound 0.0316 µM): 75.1% and 73.7% | viability, T/C (compound 0.1 µM): 60.8% and 66.9% | viability, T/C (compound 0.316 µM): 55.2% and 68.3% | viability, T/C (compound 1 µM): 67.1% and 84.3% | viability, T/C (compound 3.16 µM): 76% and 71.3% | viability, T/C (compound 10 µM): 62.9% and 66.1% | IC50 (curve of compound): > 10000 nM
